This note sets out measurements from ChEMBL document CHEMBL1156230, “Identification of phenylsulfone-substituted quinoxaline (WYE-672) as a tissue selective liver X-receptor (LXR) agonist” (J Med Chem, 2010).

Some results are limits rather than exact numbers.

For experiment [1], the target named is T1, Oxysterols receptor LXR-alpha (Homo sapiens, UniProt Q13133).
T1 sequence (Q13133 whole entry): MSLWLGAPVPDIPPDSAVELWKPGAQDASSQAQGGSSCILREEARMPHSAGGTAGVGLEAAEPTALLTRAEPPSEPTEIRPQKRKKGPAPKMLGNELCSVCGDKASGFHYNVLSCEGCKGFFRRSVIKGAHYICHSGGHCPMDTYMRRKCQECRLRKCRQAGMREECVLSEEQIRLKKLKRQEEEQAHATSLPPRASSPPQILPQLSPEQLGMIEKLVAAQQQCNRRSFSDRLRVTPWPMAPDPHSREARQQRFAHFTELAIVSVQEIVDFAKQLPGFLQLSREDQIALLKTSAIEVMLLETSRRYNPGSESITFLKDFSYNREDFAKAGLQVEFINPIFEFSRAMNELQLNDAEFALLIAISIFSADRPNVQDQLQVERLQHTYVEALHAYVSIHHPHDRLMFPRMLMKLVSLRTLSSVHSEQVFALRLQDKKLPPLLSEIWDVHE
Nature of the experiment: Displacement of [3H]T0901317 from human LXRalpha ligand binding domain.

Experiment [2] has as its target T2, Oxysterols receptor LXR-beta (Homo sapiens, UniProt P55055).
Experiment [3] addresses T2, Oxysterols receptor LXR-beta. Kind of experiment: Displacement of [3H]T0901317 from human LXRbeta ligand binding domain.
The test system of experiment [4] is HepG2. Kind of experiment: Agonist activity at LXR in human HepG2 cells assessed as lipid accumulation relative to T0901317.
For experiment [5], the target named is T3, Oxysterols receptor LXR-alpha (Homo sapiens, UniProt Q13133).
For experiment [6], the target named is T2, Oxysterols receptor LXR-beta. This is another data set of the same source.
The test system of a further experiment is THP-1. Kind of experiment: cells. The following applies: Homo sapiens.
The target of experiment [7] is T3, Oxysterols receptor LXR-alpha. This is another data set of the same source.
Experiment [8] relates to HepG2. Nature of the experiment: cells. The note with it: Homo sapiens, HepG2, 3 h.

T2 sequence (P55055 whole entry, the tested form may be a part): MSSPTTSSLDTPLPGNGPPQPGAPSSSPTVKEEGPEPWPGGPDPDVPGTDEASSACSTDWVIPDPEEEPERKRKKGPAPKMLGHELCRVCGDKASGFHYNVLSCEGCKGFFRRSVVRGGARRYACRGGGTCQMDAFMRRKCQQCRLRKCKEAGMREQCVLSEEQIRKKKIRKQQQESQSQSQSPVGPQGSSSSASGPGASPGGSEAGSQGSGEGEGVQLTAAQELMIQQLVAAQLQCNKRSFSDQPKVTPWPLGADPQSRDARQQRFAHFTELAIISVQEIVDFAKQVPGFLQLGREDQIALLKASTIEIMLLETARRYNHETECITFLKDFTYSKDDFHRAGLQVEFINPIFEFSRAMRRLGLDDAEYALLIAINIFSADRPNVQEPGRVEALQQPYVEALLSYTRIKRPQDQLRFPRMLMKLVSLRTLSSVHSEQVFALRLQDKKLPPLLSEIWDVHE

On to `CNC(=O)c1cccc(-c2ccc(-c3nc4cccc(C(F)(F)F)c4nc3C)cc2)c1`, for which the IC50 in experiment [1] was > 1000 nM.
Same read-out and setting: with `Cc1nc2c(C(F)(F)F)cccc2nc1-c1cccc(-c2ccc(S(C)(=O)=O)cc2)c1` the figure was > 1000 nM.
Regarding `CS(=O)(=O)c1cc(Cl)cc(Oc2cccc(-c3c(C(N)=O)cnc4c(C(F)(F)F)cccc34)c2)c1`, the EC50 in [2] came to 1700 nM; in experiment [5] it was 10.9 µM; in [6], 460 nM; in the experiment with THP-1, 1890 nM; in experiment [7], 5.1 µM; in the experiment with HepG2 [8], 3180 nM. For the same molecule, the IC50 in [3] amounted to 61 nM. For the same molecule, in the experiment with HepG2 [4], the Efficacy worked out at 74%.
As to `Cc1nc2c(C(F)(F)F)cccc2nc1-c1cccc(-c2cccc(S(C)(=O)=O)c2)c1`, the 50% inhibitory concentration (IC50) in [1] is > 1000 nM.
As for `CNS(=O)(=O)c1cccc(-c2ccc(-c3nc4cccc(C(F)(F)F)c4nc3C)cc2)c1`, in the experiment with HepG2 [4], the Efficacy worked out at 6%. In the experiment on THP-1, this molecule registered an EC50 of 1470 nM.
As for `CCS(=O)(=O)c1cccc(-c2ccc(-c3nc4cccc(C(F)(F)F)c4nc3C)cc2)c1`, the IC50 in experiment [1] is > 1000 nM.
On the same count and under the same terms, with `Cc1nc2c(C(F)(F)F)cccc2nc1-c1ccc(-c2ccc(S(C)(=O)=O)cc2)cc1` the figure was > 1000 nM.
In the case of `Cc1nc2c(Cl)cccc2nc1-c1ccc(-c2cccc(S(C)(=O)=O)c2)cc1`, the Efficacy in the experiment with HepG2 [4] is listed as 18%. Besides, the concentration giving a half-maximal response (EC50) is 290 nM in the experiment on THP-1 and 380 nM in the experiment on HepG2 [8].
`Cc1nc2c(C(F)(F)F)cccc2nc1-c1ccc(-c2ccccc2S(C)(=O)=O)cc1`: the 50% inhibitory concentration (IC50) in experiment [1] is > 1000 nM.
On to `CCc1nc2c(C(F)(F)F)cccc2nc1-c1ccc(-c2cccc(S(C)(=O)=O)c2)cc1`, for which the Efficacy with HepG2 [4] came to 32%. Also, the 50% effective concentration (EC50) in the experiment on THP-1 was 900 nM; in the experiment with HepG2 [8] it was 350 nM.
`CS(=O)(=O)c1cccc(-c2ccc(-c3cnc4c(C(F)(F)F)cccc4n3)cc2)c1`: in experiment [1], the IC50 is > 1000 nM.
